Values quoted from earlier work in patent publication US20230149445A1, “OXIDATIVE STRESS INHIBITOR AND ANTIOXIDANT AGENT” (BOSQUET Silicon Corp., priority 2020, published 2023).

Settings: water at 25° C.

[HH] [hydrogen (H2), hydrogen]
saturated solubility in water: 1.6 ppm
